Assays:
[1] = tested on: normal NK cells expanded with K562-aAPC; assay: drug sensitivity score (DSS) (DSS units); higher = more sensitive; extreme values may be limits of the assay; details: 72 h; IL-2 2.5 ng/mL
Procedure: (§1)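 Drug sensitivity and resistance testing on K562-aAPC-expanded normal NK cells: 5 concentrations (10-fold steps over a 10,000-fold range), 72 h at 37 °C, viability by CellTiter-Glo normalised to DMSO and benzethonium chloride controls; DSS from the fitted curve.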

[2] = tested on: normal primary NK cells, pool 1 (3 donors), resting (IL-2 0 ng/mL); assay: percent inhibition of viability; higher = more inhibition; details: 72 h
[3] = tested on: DERL-7 (IL-2 2.5 ng/mL); assay: as above; details: 72 h
[4] = tested on: normal primary NK cells, pool 3 (3 donors) (IL-2 2.5 ng/mL); assay: as above; details: 72 h
[5] = tested on: normal primary NK cells, pool 2 (3 donors) (IL-2 2.5 ng/mL); assay: as above; details: 72 h
[6] = tested on: NKL (IL-2 2.5 ng/mL); assay: as above; details: 72 h
[7] = tested on: KHYG-1 (IL-2 2.5 ng/mL); assay: as above; details: 72 h
[8] = tested on: normal primary NK cells, pool 1 (3 donors) (IL-2 2.5 ng/mL); assay: as above; details: 72 h
[9] = tested on: IMC-1 (IL-2 20 ng/mL); assay: as above; details: 72 h
[10] = tested on: YT (IL-2 2.5 ng/mL); assay: as above; details: 72 h
[11] = tested on: SNK-6 (IL-2 2.5 ng/mL); assay: as above; details: 72 h
[12] = tested on: NK-YS (IL-2 2.5 ng/mL); assay: as above; details: 72 h
[13] = tested on: KAI3 (IL-2 2.5 ng/mL); assay: as above; details: 72 h
[14] = tested on: NK-92 (IL-2 2.5 ng/mL); assay: as above; details: 72 h
[15] = tested on: normal primary NK cells, pool 1 (3 donors), resting (IL-2 0 ng/mL); assay: drug sensitivity score (DSS) (DSS units); higher = more sensitive; extreme values may be limits of the assay; details: 72 h
[16] = tested on: DERL-7 (IL-2 2.5 ng/mL); assay: as above; details: 72 h
[17] = tested on: normal primary NK cells, pool 3 (3 donors) (IL-2 2.5 ng/mL); assay: as above; details: 72 h
[18] = tested on: normal primary NK cells, pool 2 (3 donors) (IL-2 2.5 ng/mL); assay: as above; details: 72 h
[19] = tested on: NKL (IL-2 2.5 ng/mL); assay: as above; details: 72 h
[20] = tested on: KHYG-1 (IL-2 2.5 ng/mL); assay: as above; details: 72 h
[21] = tested on: normal primary NK cells, pool 1 (3 donors) (IL-2 2.5 ng/mL); assay: as above; details: 72 h
[22] = tested on: IMC-1 (IL-2 20 ng/mL); assay: as above; details: 72 h
[23] = tested on: YT (IL-2 2.5 ng/mL); assay: as above; details: 72 h
[24] = tested on: SNK-6 (IL-2 2.5 ng/mL); assay: as above; details: 72 h
[25] = tested on: NK-YS (IL-2 2.5 ng/mL); assay: as above; details: 72 h
[26] = tested on: KAI3 (IL-2 2.5 ng/mL); assay: as above; details: 72 h
[27] = tested on: NK-92 (IL-2 2.5 ng/mL); assay: as above; details: 72 h
[28] = tested on: normal NK cells expanded with K562-aAPC; assay: percent inhibition of viability; higher = more inhibition; details: 72 h, IL-2 2.5 ng/mL
Procedure: as §1

CS(=O)(=O)OCCCCOS(C)(=O)=O [Busulfan] (max concentration tested 100000 nM)
Details	drug sensitivity score
[1]	0.67
[15]	0
[16]	1.44
[17]	1.42
[18]	2.38
[19]	6.32
[20]	6.48
[21]	0
[22]	6.28
[23]	2.18
[24]	8.82
[25]	5.53
[26]	6.36
[27]	4.82

percent inhibition of viability [%]
Details	10 nM	100 nM	1000 nM	10000 nM	100000 nM
[2]	9.92	-5.43	4.09	-28.6	-11.5
[3]	-0.3	0.71	-1.86	-6.29	37.3
[4]	0.71	-2.78	10.5	-3.81	35.4
[5]	-6.89	-5.87	7.32	-4.08	50.9
[6]	-14.8	-1.78	-0.6	5.56	99.4
[7]	-5.97	2.86	-2.89	5.78	101
[8]	0.77	-7.48	-4.93	-16	-3.43
[9]	-7.58	1.98	-0.95	5.86	97.7
[10]	-5.22	1.87	-2.46	-4.04	47.7
[11]	6.87	18.8	18.7	29.4	98
[12]	-7.3	-2.96	-5.68	2.67	93.2
[13]	-3.8	4.61	-6.45	7.92	92.1
[14]	-12.9	1.55	8.88	-9.97	98.6
[28]	-2.86	1.34	1.8	12.1	11.6

CC[C@H](Nc1ncnc2[nH]cnc12)c1nc2cccc(F)c2c(=O)n1-c1ccccc1 [Idelalisib] (max concentration tested 10000 nM)
Details	drug sensitivity score
[1]	3.47
[15]	2.55
[16]	8.42
[17]	1.78
[18]	3.36
[19]	3.92
[20]	0.8
[21]	1.85
[22]	0
[23]	3
[24]	6.33
[25]	0.36
[26]	2.76
[27]	14.8

percent inhibition of viability [%]
Details	1 nM	10 nM	100 nM	1000 nM	10000 nM
[2]	1.24	15.1	10.3	1.19	46.2
[3]	0.81	7.45	12.8	35.1	66.8
[4]	-3.21	-0.12	6.64	10.3	26.2
[5]	-10.8	-5.29	14.8	13.4	35.6
[6]	-12.5	-5.82	11	18.2	37
[7]	-5.24	5.27	6.69	5.88	20.5
[8]	-2.62	10.2	9.54	5.66	28.7
[9]	-6.02	-6.45	-0.47	-2.08	11.1
[10]	1.69	6.88	13.7	12.4	27.4
[11]	-11.8	-5.04	17.2	23.9	57.8
[12]	-9.88	-3.78	3.49	-1.8	18
[13]	-6.15	4.84	14.3	12.3	24.5
[14]	7.56	15.2	42.3	40.1	54.5
[28]	-1.29	-3.37	3.42	14.1	38.7

Reference: the supplement of paper PMC5908809
